molecular target: p97 ATPase WT (Homo sapiens (Human), UniProt P55072); assay: p97 ADP-Glo assay; assay type: biochemical; conditions: Table 3; read-out: ADPGlo IC50
Text: ADP-Glo™ (Promega Corp.) is a bioluminescent, homogeneous assay that measures ADP formed from a biochemical reactions. Because of its high sensitivity, the assay is suitable for monitoring enzyme activities at very early substrate conversions requiring very low amount of enzymes.
The ADP-Glo assay can be conducted as described in Chou, T.-F.; Bulfer, S. L.; Weihl, C.

Sequence of p97 ATPase WT (P55072 whole entry): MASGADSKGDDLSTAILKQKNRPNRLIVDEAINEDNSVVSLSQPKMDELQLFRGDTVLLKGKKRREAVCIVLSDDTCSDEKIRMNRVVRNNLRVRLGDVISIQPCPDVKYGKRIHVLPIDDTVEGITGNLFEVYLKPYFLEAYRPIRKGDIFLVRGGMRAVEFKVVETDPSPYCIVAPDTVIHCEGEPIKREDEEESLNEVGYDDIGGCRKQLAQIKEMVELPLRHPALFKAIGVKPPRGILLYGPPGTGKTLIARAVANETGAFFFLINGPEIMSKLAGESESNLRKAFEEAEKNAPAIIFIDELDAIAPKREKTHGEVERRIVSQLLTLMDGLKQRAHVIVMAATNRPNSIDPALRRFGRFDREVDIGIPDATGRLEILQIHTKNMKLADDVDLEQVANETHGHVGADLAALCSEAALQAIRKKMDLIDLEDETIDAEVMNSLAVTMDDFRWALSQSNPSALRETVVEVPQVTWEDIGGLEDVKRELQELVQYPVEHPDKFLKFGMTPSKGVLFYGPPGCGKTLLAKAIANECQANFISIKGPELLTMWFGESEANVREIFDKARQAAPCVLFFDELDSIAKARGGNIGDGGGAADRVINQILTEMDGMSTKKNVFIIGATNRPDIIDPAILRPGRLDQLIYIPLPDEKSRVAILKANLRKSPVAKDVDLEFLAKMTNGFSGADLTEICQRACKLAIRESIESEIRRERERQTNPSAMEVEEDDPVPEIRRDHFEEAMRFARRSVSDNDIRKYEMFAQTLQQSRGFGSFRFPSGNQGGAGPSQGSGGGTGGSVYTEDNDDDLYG

Structure (SMILES) | IC50
CC(C)(C)OC(=O)N1CCCN(CCNC2CCN(c3cccc(-c4cc5ccccc5[nH]4)c3)CC2)CC1 | 1100 nM
NC(=O)CCNC1CCN(c2cccc(-c3cc4cc(F)ccc4[nH]3)c2)CC1 | 760 nM
c1cc(-c2cc3ccccc3[nH]2)cc(N2CCC(NCCN3CCN(CC4CC4)CC3)CC2)c1 | 170 nM
CC(C)N1CCN(CCNC2CCN(c3cccc(-c4cc5ccccc5[nH]4)c3)CC2)C(=O)C1 | 1900 nM
COC(=O)c1ccc2[nH]c(-c3cccc(N4CCC(NC5CCN(C(C)C)CC5)CC4)c3)cc2c1 | 510 nM
Cc1ccc(N2CCC(NCC3(N4CCN(C(C)C)CC4)CCC3)CC2)cc1-c1cc2cc(F)ccc2[nH]1 | 320 nM
CC(C)N1CCC(NC2CCN(c3cccc(-c4cc5cc(Cl)ccc5[nH]4)c3)CC2)CC1 | 92 nM
c1cncc(CNC2CCN(c3cccc(-c4cc5ccccc5[nH]4)c3)CC2)c1 | 740 nM
CC(C)N1CCN(CCNC2CCN(c3cccc(-c4cc5ccccc5o4)c3)CC2)CC1 | 20000 nM
CC(C)N1CCN(CCNC2CCN(c3cccc(-c4cc5cc(F)cnc5[nH]4)c3)CC2)CC1 | 5300 nM
Cc1ccc(N2CCC(NCCc3ncnn3C)CC2)cc1-c1cc2ccccc2[nH]1 | 4500 nM
CC(C)(C)OC(=O)N1CCN(CCNC2CCN(c3cccc(-c4cc5ccccc5[nH]4)c3)CC2)CC1 | 2400 nM
CC(C)N1CCN(CCNC2CCN(c3ccc4c(c3)-c3[nH]c5ccccc5c3CC4)CC2)CC1 | 370 nM
O=C(Nc1ccccn1)C1CCN(c2cccc(-c3cc4cc(F)ccc4[nH]3)c2)CC1 | 9700 nM
CC(C)N1CCN(CCNC2CCN(c3cccc(-c4cc5cccc(F)c5[nH]4)c3)CC2)CC1 | 3300 nM
CC1CCN(CCNC2CCN(c3cccc(-c4cc5ccccc5[nH]4)c3)CC2)CC1 | 800 nM
CN1CCN(C2(CNC3CCN(c4cccc(-c5cc6cc(Cl)ccc6[nH]5)c4)CC3)CCC2)CC1 | 110 nM

Structure (SMILES) | IC50
CN1CCN(C2(CNC3CCN(c4cccc(-c5cc6cc(S(C)(=O)=O)ccc6[nH]5)c4)CC3)CCC2)CC1 | 16000 nM
FC(F)(F)C(c1ccccc1)N1CCN(CCNC2CCN(c3cccc(-c4cc5ccccc5[nH]4)c3)CC2)CC1 (stereo not drawn) | 17000 nM
Cc1ccc(N2CCC(NCCN3CCN(C(C)C)CC3)CC2)cc1-c1cc2ccccc2[nH]1 | 140 nM
CCC(C)N1CCN(CCNC2CCN(c3cccc(-c4cc5ccccc5[nH]4)c3)CC2)CC1 (stereo not drawn) | 110 nM
Cc1ccc(N2CCC(NCCN3CCN(C(C)C)CC3)CC2)cc1-c1cc2cc(F)ccc2[nH]1 | 25 nM
CC(C)N1CCN(CCNC2CCN(c3cccc(-c4cc5ccc(N)cc5[nH]4)c3)CC2)CC1 | 5200 nM
CN1CCN(C2CCN(c3cccc(-c4cc5ccccc5[nH]4)c3)CC2)CC1 | 13000 nM
CC(C)N1CCN(CCNC2CCN(c3cccc(-c4cc5ccccc5s4)c3)CC2)CC1 | 24000 nM
CN1CCN(CCCNC2CCN(c3cccc(-c4cc5ccccc5[nH]4)c3)CC2)CC1 | 210 nM
Cc1ccc(N2CCC(NC3CCN(C(C)C)CC3)CC2)cc1-c1cc2cc(C#N)ccc2[nH]1 | 110 nM
CN1CCC(NC2CCN(c3cncc(-c4cc5ccccc5[nH]4)c3)CC2)CC1 | 25000 nM
CN1CCN(C(=O)CCNC2CCN(c3cccc(-c4cc5cc(F)ccc5[nH]4)c3)CC2)CC1 | 150 nM
FC1(F)CCN(CCNC2CCN(c3cccc(-c4cc5ccccc5[nH]4)c3)CC2)CC1 | 2400 nM
CN(C)CCNC1CCN(c2cccc(-c3cc4cc(F)ccc4[nH]3)c2)CC1 | 710 nM
N#Cc1ccc2[nH]c(-c3cccc(N4CCC(NCc5cccc(N=[N+]=[N-])c5)CC4)c3)cc2c1 | 160 nM
CC(C)N1CCC(NC2CCN(c3nnc(-c4cc5cc(F)ccc5[nH]4)o3)CC2)CC1 | 15800 nM

Reference: patent publication US11247985B2, “Phenyl indole allosteric inhibitors of P97 ATPase” (University of Pittsburgh—Of the Commonwealth System of …, priority 2015, dated 2022)
